Reference: patent publication US20240285646A1, “METHODS AND COMPOSITIONS FOR LIPID FORMULATION OF LIPOPHILIC SMALL MOLECULE THERAPIES OF THE HETEROCYCLIC TYPE” (Neuronascent, Inc., priority 2021, published 2024)
“And” between values parts separate entries of the source, which are not always exact repeats. Identical values can stand only once.

Tests used:
[1] = Phase 1A pharmacokinetics of oral NNI-362 in 1% methylcellulose suspension (Cohorts A-E); type: in vivo, human
Experimental: (§1) A Phase 1A, randomized, placebo-controlled, single and multiple dose, dose-escalation study was conducted to evaluate the safety, tolerability and pharmacokinetics of oral NNI-362 in healthy aged volunteers 50 to 72 years of age. Subjects were fasted prior to dose administration. The plasma concentrations of NNI-362 were determined by a validated bioanalytical method using liquid chromatography-tandem mass spectrometry (LC-MS/MS). The analytical range was 25.0-25000 pg/ml, with 0.0500 ml sample volumes. The stable label d5-NNI-362 was used as the internal standard for this assay.
(§2) NNI-362 was formulated in 1% (w/v) methylcellulose in sterile water as an oral suspension that was administered to Cohorts A-E. NNI-362 was administered in a lipid-based formulation (medium-chain triglycerides, Kolliphor EL and beeswax; 95/3/2%; NNI-362 added to provide 120 mg/ml) oral suspension) for Cohorts F and G.
(§3) PK data analysis was performed on the measurable plasma concentrations of NNI-362. The plasma concentration data were evaluated using Phoenix 64® WinNonlin® software (Version 8.3) to perform noncompartmental analysis. Nominal blood collection times were used in data analysis. The dose administered in dose group was entered into the program as mg/subject.
(§4) The following PK parameters were determined for NNI-362 plasma concentrations for each subject: observed maximal plasma concentration (Cmax), observed time to reach Cmax (Tmax), area under the plasma concentration time curve up to the last blood collection time (AUClast), and extrapolated to infinity (AUCinf), the percent of AUCinf that was extrapolated (% Extrap AUCinf), terminal elimination half-life (t1/2), and mean residence time to infinity (MRTinf). Terminal t1/2, AUCinf, MRTinf could not be calculated in some subjects due to limited data or poor fit (r<0.8) of the terminal phase of the plasma concentration and time curve. Extrapolation of more than 20% of the AUC may result in unreliable values for the terminal parameters.

[2] = Phase 1A pharmacokinetics of oral NNI-362 in lipid-based formulation (Cohorts F and G); type: in vivo, human; conditions: for Extrap AUCinf / AUCinf / AUClast / Cmax / MRTinf / Tmax / t1/2 / AUC(0-inf) / AUC(0-t) / MRT inf / half-life: lipid formulation
Experimental: Exemplary Formulation F2 was prepared by slowly adding NNI-362 into a jar containing 100 mL of lipid-based MCT/Kolliphor EL/Beeswax (95/3/2% w/w) while mixing and then stirring until all powder is wet. The actual weight of NNI-362 was between 11.88 and 12.12 g to provide the nominal concentration of 120 mg/ml.
as §1, §2, §3, §4
The correlation coefficient for the terminal phase was determined using WinNonlin. Significant differences in selected pharmacokinetic parameters between the SAD and MAD dose groups of cohorts F and G were evaluated using the t-test (two tail, paired test; p<0.05).

[3] = Solubility of NNI-362; type: physicochemical
[4] = 60 mg oral, SAD, individual subjects
[5] = 120 mg oral, SAD, individual subjects
[6] = human, plasma, 60 mg oral, SAD, individual subjects
[7] = human, plasma, 120 mg oral, SAD, individual subjects
[8] = Cohort F, 120 mg oral, MAD, individual subjects
[9] = Cohort F, 120 mg oral, SAD, individual subjects
[10] = Cohort G, 240 mg oral, MAD, individual subjects
[11] = Cohort G, 240 mg oral, SAD, individual subjects
[12] = human, plasma, po, 120 mg, Cohort F, 120 mg oral, MAD, cohort mean
[13] = human, plasma, po, 120 mg, Cohort F, 120 mg oral, SAD, cohort mean
[14] = human, plasma, po, 120 mg, Cohort F, 120 mg oral, SAD, individual subjects
[15] = human, plasma, po, 240 mg, Cohort G, 240 mg oral, MAD, cohort mean
[16] = human, plasma, po, 240 mg, Cohort G, 240 mg oral, SAD, cohort mean

## CCOc1ccccc1NC(=S)N1CCCN(c2nc3cc(C)c(C)cc3cc2C#N)CC1 [NNI-362]
[1]; 20 mg oral, MAD, individual subjects
  Cmax: 0.0251 ng/mL
[1]; [4]
  AUClast: 0.623 ng·h/mL
  Cmax: 0.069 ng/mL and 0.0468 ng/mL and 0.0336 ng/mL
  Extrap AUCinf: 24.1%
  Tmax: 6 h and 24 h
[1]; [5]
  Cmax: 0.0426 ng/mL and 0.0601 ng/mL
  Extrap AUCinf: 54.5%
  Tmax: 6 h and 2 h
[1]; Cohort A, single oral dose of 10 mg per subject, LLOQ 25 pg/ml
  plasma concentrations of NNI-362: no plasma samples from these subjects contained quantifiable concentrations
[1]; Cohort B, 20 mg oral, two subjects, one plasma sample each
  plasma drug concentrations: > 0.025 ng/mL
[1]; [6]
  AUC(0-inf): 0.622 ng·h/mL
  MRT inf: 9.2 h
  half-life: 4.09 h
[1]; [7]
  AUC(0-inf): 0.908 ng·h/mL
  MRT inf: 5.5 h
  half-life: 13.7 h
[1]; human, plasma, po, 20 mg, 20 mg oral, MAD, individual subjects, read-out: Cmax
  Cmax: 0.0151 ng/mL
[1]; human, plasma, po, 20 mg, 20 mg oral, MAD, individual subjects, read-out: Tmax
  Tmax: 12 h
[1]; human, plasma, po, 60 mg, 60 mg oral, SAD, individual subjects
  AUC(0-t): 0.473 ng·h/mL
[1]; human, plasma, po, 120 mg, 120 mg oral, SAD, individual subjects
  AUC(0-t): 0.414 ng·h/mL
[1]; human, plasma, po, 120 mg, 120 mg oral, SAD, individual subjects, read-out: Cmax
  Cmax: 0.037 ng/mL
[2]; Cohort F, 120 mg oral, MAD, cohort mean
  Extrap AUCinf: 30.0%
[2]; [8]
  AUCinf: 1.28 ng·h/mL and 3.74 ng·h/mL and 8.95 ng·h/mL and 0.719 ng·h/mL and 2.44 ng·h/mL
  AUClast: 1.15 ng·h/mL and 2.68 ng·h/mL and 3.8 ng·h/mL and 0.525 ng·h/mL and 1.77 ng·h/mL and 0.179 ng·h/mL
  Cmax: 0.193 ng/mL and 0.144 ng/mL and 0.208 ng/mL and 0.0638 ng/mL and 0.126 ng/mL and 0.0404 ng/mL
  Extrap AUCinf: 9.78% and 28.4% and 57.5% and 26.9% and 27.7%
  MRTinf: 6.68 h and 19.3 h and 42.9 h and 9.7 h and 17.6 h
  Tmax: 6 h and 2 h and 8 h
[2]; Cohort F, 120 mg oral, SAD, cohort mean
  Extrap AUCinf: 43.8%
[2]; [9]
  AUCinf: 0.8 ng·h/mL and 0.511 ng·h/mL
  AUClast: 0.555 ng·h/mL and 1.21 ng·h/mL and 0.289 ng·h/mL and 0.561 ng·h/mL and 0.182 ng·h/mL
  Cmax: 0.101 ng/mL and 0.208 ng/mL and 0.0484 ng/mL and 0.0834 ng/mL and 0.0701 ng/mL and 0.0435 ng/mL
  Extrap AUCinf: 36.9% and 29.9% and 64.5%
  MRTinf: 10.2 h and 12.4 h
  Tmax: 6 h and 8 h and 2 h and 1 h and 4 h and 0.5 h
  t1/2: 6.15 h and 8.13 h
[2]; Cohort G, 240 mg oral, MAD, cohort mean
  Extrap AUCinf: 34.4%
[2]; [10]
  AUCinf: 4.52 ng·h/mL and 0.426 ng·h/mL and 4.23 ng·h/mL and 3.98 ng·h/mL and 0.975 ng·h/mL
  AUClast: 1.99 ng·h/mL and 0.235 ng·h/mL and 4 ng·h/mL and 2.61 ng·h/mL and 2.85 ng·h/mL and 0.569 ng·h/mL
  Cmax: 0.124 ng/mL and 0.059 ng/mL and 0.679 ng/mL and 0.221 ng/mL and 0.267 ng/mL and 0.0822 ng/mL
  Extrap AUCinf: 54.8% and 43.9% and 5.10% and 27.7% and 40.5%
  MRTinf: 39.5 h and 7.10 h and 9.51 h and 18.8 h and 13.5 h
  Tmax: 2 h and 6 h and 1 h
  t1/2: 26.2 h and 4.29 h and 5.10 h and 13.5 h and 9.24 h
[2]; Cohort G, 240 mg oral, SAD, cohort mean
  Extrap AUCinf: 28.3%
[2]; [11]
  AUCinf: 0.79 ng·h/mL and 2.09 ng·h/mL and 1.09 ng·h/mL
  AUClast: 0.103 ng·h/mL and 0.677 ng·h/mL and 0.243 ng·h/mL and 1.02 ng·h/mL and 0.88 ng·h/mL
  Cmax: 0.0523 ng/mL and 0.0316 ng/mL and 0.13 ng/mL and 0.0857 ng/mL and 0.0846 ng/mL and 0.21 ng/mL
  Extrap AUCinf: 14.4% and 51.1% and 19.3%
  MRTinf: 7.76 h and 36.9 h and 5.56 h
  Tmax: 2 h and 6 h and 1 h and 4 h
  t1/2: 2.6 h and 2.30 h
[2]; Formulation F2, Cohort F, 120 mg single dose, Day 1, K3 EDTA human plasma, patient SRI-F-005, 0 h
  Concentration: < LLOQ
[2]; Formulation F2, Cohort F, 120 mg single dose, Day 1, K3 EDTA human plasma, patient SRI-F-005, 12 h
  Concentration: < LLOQ
[2]; Formulation F2, Cohort F, 120 mg single dose, Day 1, K3 EDTA human plasma, patient SRI-F-005, 24 h
  Concentration: < LLOQ
[2]; human, plasma, oral, range over Cohorts F and G, SAD and MAD, read-out: Tmax values
  Tmax: 0.5 to 8 h
[2]; [12]
  AUC(0-inf): 3.43 ± 3.3 ng·h/mL
  AUC(0-t): 1.68 ng·h/mL
  MRT inf: 19.2 ± 14.3 h
  half-life: 12.2 ± 10.2 h
[2]; human, plasma, po, 120 mg, Cohort F, 120 mg oral, MAD, cohort mean, read-out: Cmax
  Cmax: 0.129 ng/mL
[2]; human, plasma, po, 120 mg, Cohort F, 120 mg oral, MAD, cohort mean, read-out: Cmax after multiple doses
  Cmax: 0.129 ± 0.0673 ng/mL
[2]; human, plasma, po, 120 mg, Cohort F, 120 mg oral, MAD, cohort mean, read-out: Tmax
  Tmax: 4.33 h
[2]; [13]
  AUC(0-inf): 0.59 ± 0.184 ng·h/mL
  AUC(0-t): 0.559 ng·h/mL
  MRT inf: 9.99 ± 2.55 h
  half-life: 6.24 ± 1.84 h
[2]; human, plasma, po, 120 mg, Cohort F, 120 mg oral, SAD, cohort mean, read-out: Cmax
  Cmax: 0.0924 ± 0.0606 ng/mL
[2]; human, plasma, po, 120 mg, Cohort F, 120 mg oral, SAD, cohort mean, read-out: Tmax
  Tmax: 3.58 h
[2]; [14]
  AUC(0-inf): 0.458 ng·h/mL
  MRT inf: 7.35 h
  half-life: 4.45 h
[2]; [15]
  AUC(0-inf): 2.83 ± 1.96 ng·h/mL
  AUC(0-t): 2.04 ng·h/mL
  MRT inf: 17.7 ± 13 h
  half-life: 11.7 ± 8.94 h
[2]; human, plasma, po, 240 mg, Cohort G, 240 mg oral, MAD, cohort mean, read-out: Cmax
  Cmax: 0.239 ± 0.23 ng/mL
[2]; human, plasma, po, 240 mg, Cohort G, 240 mg oral, MAD, cohort mean, read-out: Tmax
  Tmax: 3.17 h
[2]; [16]
  AUC(0-inf): 1.32 ± 0.681 ng·h/mL
  AUC(0-t): 0.585 ng·h/mL
  MRT inf: 16.7 ± 17.5 h
  half-life: 2.58 ± 0.25 h
[2]; human, plasma, po, 240 mg, Cohort G, 240 mg oral, SAD, cohort mean, read-out: Cmax
  Cmax: 0.099 ng/mL
[2]; human, plasma, po, 240 mg, Cohort G, 240 mg oral, SAD, cohort mean, read-out: Tmax
  Tmax: 2.83 h
[2]; human, plasma, po, 240 mg, Cohort G, 240 mg oral, SAD, cohort mean, read-out: mean Cmax
  Cmax: 0.099 ± 0.0639 ng/mL
[2]; human, plasma, po, 240 mg, Cohort G, 240 mg oral, SAD, individual subjects
  half-life: 2.8 h
[2]; oral, Formulation F2, Cohort F, 120 mg single dose, Day 1, K3 EDTA human plasma, patient SRI-F-005, 0.5 h
  concentration at 0.5 h: 0.0768 ng/mL
[2]; oral, Formulation F2, Cohort F, 120 mg single dose, Day 1, K3 EDTA human plasma, patient SRI-F-005, 1 h
  concentration at 1 h: 0.0834 ng/mL
[2]; oral, Formulation F2, Cohort F, 120 mg single dose, Day 1, K3 EDTA human plasma, patient SRI-F-005, 2 h
  concentration at 2 h: 0.0388 ng/mL
[2]; oral, Formulation F2, Cohort F, 120 mg single dose, Day 1, K3 EDTA human plasma, patient SRI-F-005, 4 h
  concentration at 4 h: 0.0253 ng/mL
[2]; oral, Formulation F2, Cohort F, 120 mg single dose, Day 1, K3 EDTA human plasma, patient SRI-F-005, 6 h
  concentration at 6 h: 0.0267 ng/mL
[2]; oral, Formulation F2, Cohort F, 120 mg single dose, Day 1, K3 EDTA human plasma, patient SRI-F-005, 8 h
  concentration at 8 h: 0.0263 ng/mL
[3]; common organic solvents
  solubility: soluble in common organic solvents
[3]; water/aqueous solutions
  solubility: insoluble in water/aqueous solutions
